In patent US4614740A, “5H-2,3-benzodiazepine derivatives and pharmaceutical compositions containing the same” (Egis Gyogyszergyar, priority 1984, dated 1986):

Assays:
[1] = anxiolytic effect, Vogel lick-conflict test; type: in vivo
Method: The anxiolytic effect was determined by the method of Vogel lick-conflict test/[Psychopharmacol. 21, 1 1979]. Tofizopam, 1-(3-chlorophenyl)-4-methyl-7,8-dimethoxy-5H-2,3-benzodiazepine and Chlorodiazepoxide 7-chloro-2-methylamino-5-phenyl-3H-1,4-benzodiazepine-4-oxide were used as reference agents.

mice [2] = assay: antiaggressive effect, "fighting behaviour" test; type: in vivo; conditions: for ED50: Mus musculus, po; for Relative activity: antiaggressive effect, p.o., tofizopam = 1.0
Description: The antiaggressive effect was studied on mice by the so-called "fighting behaviour" test [J. Pharm. Exp. Ther. 125, 28 (1959)]. Tofizopam and 1-(3-chlorophenyl)-4-methyl-7,8-dimethoxy-5H-2,3-benzodiazepine were used as reference agents.

[3] = test system: mice from the CFLP strain; assay: spontaneous motor activity, motimeter of Animex type; type: in vivo; conditions: Mus musculus, po, 2 hours registration, Litchfield and Wilcoxon, limits between slashes, read-out: ED50 value (dose decreasing the spontaneous motor activity to half)
Method: The spontaneous motor activity was measured on a motimeter of Animex type. Groups of animal consisting of 3 mice from the CFLP strain weighing 20 to 23 g were starved for 24 hours and put to the apparatus. After a previous treatment of 10 minutes the amount of movements was registered continuously for 2 hours. The dose decreasing the spontaneous motor activity to half in comparison with the control group treated with vehiculum was determined.
The ED50 values were calculated by the method of Litchfield and Wilcoxon [J. Pharmacol. Exp. Ther. 96, 99 1949].

mice [4] = assay: narcosis potentiating effect (sodium hexobarbital narcosis); type: in vivo; conditions: Mus musculus, po, 50 mg/kg sodium hexobarbital i.v., limits between slashes, read-out: ED50 (dose increasing the narcosis period of half of the test animals to double)
Method: The narcosis potentiating effect was studied on mice. The compounds were administered in 3 or 4 oral doses to 15-20 animals per dose. Narcosis was induced with 50 mg/kg of sodium hexobarbital injected intravenously into the animals. The ED50 value is the dose increasing the narcosis period of half of the test animals to double.

mice [5] = assay: hypnotic activity in mice (HD50); type: in vivo; conditions: for ED50: Mus musculus, mice
rats = assay: hypnotic activity in rats (HD50); type: in vivo; conditions: Rattus norvegicus, iv
[6] = muscle relaxant activity, "inclined screen" test; type: in vivo
[7] = muscle relaxant activity, rotarod test; type: in vivo; conditions: ip, read-out: ED50, rotarod test
[8] = tofizopam used in the therapy; cited from earlier work

SMILES | ED50 (mice [2]) [mg/kg] | Relative activity (mice [2]) | ED50 [3] [mg/kg] | ED50 (mice [4]) [mg/kg] | further results
COc1cc2c(cc1OC)C(c1ccc(N)cc1)=NN=C(C)C2 [Example 1, 1-(4-aminophenyl)-4-methyl-7,8-dimethoxy-5H-2,3-benzodiazepine] | 8.1 | 7.9 | 3.2 | 4.8 | Number of electric shocks tolerated ([1]; 2.5 mg/kg i.p.): 4.1 ± 0.7; Number of electric shocks tolerated ([1]; 5 mg/kg i.p.): 13.9 ± 2.7; Number of electric shocks tolerated ([1]; 10 mg/kg i.p.): 19.7 ± 2.9
O=C1CN=C(c2ccccc2)c2cc([N+](=O)[O-])ccc2N1 [Nitrazepam, 7-nitro-5-phenyl-1,3-dihydro-2H-1,4-benzodiazepin-2-one, reference compound] | – | – | – | – | ED50 (mice [5]; ip): 150 mg/kg; ED50 (mice [5]; iv): 75 mg/kg; ED50 (mice [5]; po): 185 mg/kg; ED50 (rats): 96 mg/kg
COc1cc2c(cc1OC)C(c1ccc(C)c(N)c1)=NN=C(C)C2 [Example 15, 1-(3-Amino-4-methylphenyl)-4-methyl-7,8-dimethoxy-5H-2,3-benzodiazepine] | 17 | 3.8 | 9.7 | 25 | –
CC1=NN=C(c2ccc(N)cc2)c2cc3c(cc2C1)OCO3 [Example 8, 1-(4-aminophenyl)-4-methyl-7,8-methylenedioxy-5H-2,3-benzodiazepine] | – | – | 48 | 7.4 | ED50 ([6]; ip, read-out: ED50, inclined screen test): 47 mg/kg; muscle relaxant activity (in words) ([6]; versus Zoxazolamine, inclined screen and rotarod): more potent than the reference substance Zoxazolamine; ED50 [7]: 24 mg/kg; ED50 (mice [5]; ip): 70 mg/kg; ED50 (mice [5]; iv): 40 mg/kg; ED50 (mice [5]; po): 140 mg/kg; hypnotic activity (in words) (mice [5]; mice and rats): significant hypnotic activity; ED50 (rats): 40 mg/kg
COc1cc2c(cc1OC)C(c1ccc(N)c(Cl)c1)=NN=C(C)C2 [Example 18, 1-(3-Chloro-4-aminophenyl)-4-methyl-7,8-dimethoxy-5H-2,3-benzodiazepine] | 7.9 | 8.1 | – | 7.6 | Number of electric shocks tolerated ([1]; 2.5 mg/kg i.p.): 7.6 ± 3.0; Number of electric shocks tolerated ([1]; 5 mg/kg i.p.): 8.3 ± 1.0
COc1cc2c(cc1OC)C(c1ccc(N)c(C)c1)=NN=C(C)C2 [Example 10, 1-(3-Methyl-4-aminophenyl)-4-methyl-7,8-dimethoxy-5H-2,3-benzodiazepine] | 9.1 | 7.0 | 4.4 | 7.4 | –
CNC1=Nc2ccc(Cl)cc2C(c2ccccc2)=[N+]([O-])C1 [Chlorodiazepoxide, 7-chloro-2-methylamino-5-phenyl-3H-1,4-benzodiazepine-4-oxide, reference compound] | – | – | – | – | Number of electric shocks tolerated ([1]; 5 mg/kg i.p.): 9.7 ± 3.7; Number of electric shocks tolerated ([1]; 10 mg/kg i.p.): 27.5 ± 2.5
CCC1C(C)=NN=C(c2ccc(OC)c(OC)c2)c2cc(OC)c(OC)cc21 (stereo not drawn) [Tofizopam, 1-(3,4-dimethoxyphenyl)-4-methyl-5-ethyl-7,8-dimethoxy-5H-2,3-benzodiazepine, reference compound] | 74 | 1.0 | 22 | 38 | Number of electric shocks tolerated ([1]; 25 mg/kg i.p.): 3.6 ± 0.4; Number of electric shocks tolerated ([1]; 50 mg/kg i.p.): 19.8 ± 3.7; further central nervous character (in words), reference drug [8]: in addition to the anxiolytic effect, a weak antidepressant activity
COc1cc2c(cc1OC)C(C)C(C)=NN=C2c1ccc(N)cc1 (stereo not drawn) [Example 11, 1-(4-Aminophenyl)-4,5-dimethyl-7,8-dimethoxy-5H-2,3-benzodiazepine] | 16 | 4.6 | – | – | –
COc1cc2c(cc1OC)C(c1cccc(Cl)c1)=NN=C(C)C2 [1-(3-chlorophenyl)-4-methyl-7,8-dimethoxy-5H-2,3-benzodiazepine, reference compound] | 16 | 4.6 | 6.2 | 16 | Number of electric shocks tolerated ([1]; 25 mg/kg i.p.): 9.9 ± 2.8; Number of electric shocks tolerated ([1]; 50 mg/kg i.p.): 19.0 ± 2.3
COc1cc2c(cc1OC)C(c1cccc(N)c1)=NN=C(C)C2 [Example 2, 1-(3-Aminophenyl)-4-methyl-7,8-dimethoxy-5H-2,3-benzodiazepine] | 12.5 | 5.1 | 1.3 | 8.2 | Number of electric shocks tolerated ([1]; 10 mg/kg i.p.): 4.2 ± 0.7; Number of electric shocks tolerated ([1]; 25 mg/kg i.p.): 15.1 ± 1.9
